Reference: US9770462B2, “Method of treating ovarian, tubal and peritoneal cancer” (NATIONAL CHENG KUNG UNIVERSITY, priority 2015, dated 2017)

What was measured:
[1] = test system: cDDP^R cell lines (2008-cp, A172-cp and SR2) and cDDP^S cell lines (2008, A172 and SCLC); experiment: Sensitization to platinum drugs in the absence or presence of copper chelator; format: cell-based, human; details: copper chelator treated cDDP^R cells with enhanced hCtr1 expression
Protocol: Furthermore, ^64Cu uptake and platinum (Pt) uptake, and sensitization to cisplatin and carboplatin in three pairs of cDDP^R cell lines (2008-cp, A172-cp and SR2) and cDDP^S cell lines (2008, A172 and SCLC) in the absence or presence of copper chelator (5 μmol/L of TM, 100 μmol/L of trientine or 100 μmol/L of D-pen) were evaluated.

ovarian cancer cells = experiment: Cisplatin cytotoxicity (IC50) in the presence or absence of copper histidine; format: cell-based; details: copper ions 3000 μM, 24 hours
Protocol: The cytotoxicity of shControl cells (shControl), IMP3 knockdown cells (shIMP3-268, shIMP3-596) and Lin28B knockdown cells (shLin28B-860, shLin28B-508) in response to cisplatin was determined using the WST-1 (TaKaRa) assay. In brief, 3×10^4 ovarian cancer cells/well were grown in 96-well plates overnight and treated with cisplatin at various concentrations in the presence or absence of copper ions (3000 μM) (Copper Histidine) for 24 hours. After incubation, the […] was used to determine the IC50 of cisplatin. Dose-inhibition curves and the IC50 of cisplatin were calculated for the different cell types using commercial software (SigmaPlot V10.0, Systat Software, Inc., Richmond, Calif., USA). A copper histidine solution was prepared. In brief, copper(II) chloride (0.106 g; Sigma-Aldrich) and L-histidine (0.244 g; Sigma-Aldrich) were dissolved in 90 ml of sterile 0.9% sodium chloride, titrated to a pH of […] to 7.40, and then filtered through a 0.22-μm filter before use.

| Compound | sensitivity of cells to the platinum drug [1] | IC50 of cisplatin when combined with copper histidine (ovarian cancer cells; IMP3- or Lin28B-knockdown cells, p<0.05) | IC50 of cisplatin when combined with copper histidine (ovarian cancer cells; shControl cells) |
| --- | --- | --- | --- |
| N.N.O=C([O-])C1(C(=O)[O-])CCC1.[Pt+2] [carboplatin] | increased sensitivity | – | – |
| N.N.[Cl][Pt][Cl] [cisplatin] | higher increases | – | – |
| N[C@@H](Cc1c[nH]cn1)C(=O)O.[Cu] [copper histidine] | – | increased | no significant (NS) effect |
| O=C1[O][Pt]2([NH][C@@H]3CCCC[C@H]3[NH]2)[O]C1=O [oxaliplatin] | not | – | – |
